Results reported in patent US8591761B2, “Apparatus including hydrofluoroether with high temperature stability and uses thereof” (3M Innovative Properties Company, priority 2009, dated 2013).
Where two headings read alike, the source gives them in different places.

Columns and labels:
[1] = format: physicochemical; conditions: for stability of the HFE to temperature (conclusion from ketone concentration): heated at 150° C. for 8 days
Protocol: Stability testing was carried out by heating of the various samples in clean, PYREX glass round bottom flasks at the temperatures noted below.
The stability of H(CF2CF2)3CH2OCF2CFHCF3 was tested by placing a portion of the ether, prepared essentially as described in Example 1 and treated with both HF and potassium permanganate, (˜100 g) into a new PYREX glass flask containing a reflux condenser under nitrogen and heating to 150° C. for 36 days. Samples of the liquid were taken at 7, 14, 26 and 36 day time intervals and the composition was monitored by GC/MS for breakdown products of the parent molecule. […] The compositional analysis (GC/MS and GC-FID) verified this conclusion. After this heating period, the sample was then heated to 180° C. for an additional 14 days.
The stability of H(CF2CF2)3CH2OCF2CFHOCF3 was tested by placing a portion of the ether, prepared as described above, (75 g) into a flask containing a reflux condenser under nitrogen and heating while stirring magnetically to 175° C. for 15 days. Samples of the liquid were taken at 1, 2, 3, 4, 7, 8, 9, 11 and 15 day time intervals and analyzed by gas chromatography. In addition, the starting material and the material at the end of the heating period were analyzed by GC/MS for breakdown products of the parent molecule.
Stability testing in glass was carried out by placing about 100 g of the ether in a 500 ml, round bottom flask equipped with a water condenser and heated with magnetic stirring to 150° C. for seven days. Samples of the liquid were taken on days 1, 2, 3, 4, and 7 and analyzed by gas chromatography, HF gas probe, and pH paper. After one day, the pH had dropped from the initial value neutral value of 7 to 5 and remained at that level the remainder of the test.
(§1) 50 grams of the hydrofluoroether was charged to a 50 mL round bottom flask. The material was heated at 150° C. for 8 days with samples taken at day 1, 2, 3, 6, and 8. The primary breakdown product from the parent molecule that was monitored was the ketone intermediate, C3F7OCF(CF3)CF2OCF(CF3)C(O)CF2CF3. This was monitored using GC-FID.
as §1, with “5, 7,” for “3, 6,”
50 g of the hydrofluoroether was charged to a 50 mL round bottom flask. The material was heated at 150° C. for 7 days with samples taken at days 3, 5, and 7 days. The primary breakdown products from the parent molecule that were monitored was vinyl ether, C4F9OCF(CF3)CF2OCF═CF2 and the hydride C4F9OCF(CF3)CF2OCFHCF3. These were monitored using GC-FID.
50 g of the hydrofluoroether was charged to a 50 mL round bottom flask. […] The primary breakdown products from the parent molecule that were monitored was vinyl ether, C3F7(OCF(CF3)CF2)2OCF═CF2 and the hydride C3F7(OCF(CF3)CF2)2OCF═HCF3. These were monitored using GC-FID.

[2] = format: physicochemical; conditions: for breakdown product diketone (CF3)2CFCOC2F4COCF(CF3)2: other studies; for appearance of the metal parts of the chiller: over the lifetime of the test; for changes in the composition of the circulating fluid (NMR, GC/MS): circulated through closed stainless steel loop at 150° C. for 28 days
Protocol: The long term stability of HC6F12CH2OCF2CFHCF3 in a commercial chiller unit was tested. The chiller used for this test was a Lydall Affinity Chiller, model PWL-003 KBE48CBC3 with an operating range of 10° C. to 200° C. HC6F12CH2OCF2CFHCF3 was circulated through a closed stainless steel loop at 150° C. for 28 days. During this time the chiller operated continuously except for short periods for taking samples in which the fluid was cooled to room temperature before the sample was removed. […] The composition of the circulating fluid was analyzed by GC/MS periodically (on days 1, 3, 6, 13, 20, and 28) to determine whether any changes in the fluid had occurred. Fluorine NMR analysis of the fluid before the testing and after completion of the testing was also carried out. […] A very small level of HF (1.4 ppm) was observed initially and this value decreased to 0 ppm by day 13. HF was also monitored in the liquid phase by titration and never exceeded a value of 0.52 ppm.
A comparative hydrofluoroether 2,3,3,4,4-pentafluoro-2,5-bis(perfluoropropan-2-yl)-5-ethoxytetrahydrofuran (II) was also tested multiple times in this same system under the same conditions. The composition of this fluid was monitored periodically over about thirty days for composition changes from the input material. […] HF was also monitored in the liquid phase by titration and ranged between 0.34 and 0.36 ppm. […] Depending on the study this corrosion varied between quite marked with the formation of black or greenish deposits to less obvious but still showing significant signs of a corrosive agent derived from the fluid. This corrosion as well as the formation of the diketone breakdown product rendered this material unacceptable for use in such a high temperature heat transfer application.
Furthermore, the heat transfer fluid that includes the hydrofluoroether compound from Example 1 was tested for long term stability in a commercial chiller unit as described in Example 3. […] As a comparison, the compound from Comparative Example 1 was put through the same test.

SMILES: CCOC1(C(F)(C(F)(F)F)C(F)(F)F)OC(F)(C(F)(C(F)(F)F)C(F)(F)F)C(F)(F)C1(F)F (centres unmarked) [Comparative Example 1, 2,3,3,4,4-pentafluoro-2,5-bis(perfluoropropan-2-yl)-5-ethoxytetrahydrofuran]
- ppm F (HF levels in the liquid phase) ([1]; 150° C., Day 0): <0.1 ppm
- ppm F (HF levels in the liquid phase) ([1]; 150° C., Day 1): 1.0 ppm
- ppm F (HF levels in the liquid phase) ([1]; 150° C., Day 2): 1.8 ppm
- ppm F (HF levels in the liquid phase) ([1]; 150° C., Day 3): 2.6 ppm
- ppm F (HF levels in the liquid phase) ([1]; 150° C., Day 4): 3.2 ppm
- ppm F (HF levels in the liquid phase) ([1]; 150° C., Day 7): 3.9 ppm
- pH (pH paper) ([1]; 150° C., after one day, remained at that level the remainder of the test): 5
- HF level in the headspace (PortaSens probe) ([1]; 150° C., day 3, maximum level which the probe could detect, did not change for remainder of test): 27 ppm
- decomposition product diketone (CF3)2CFCOC2F4COCF(CF3)2 level ([1]; 150° C., day 7): 1648 ppm
- pH (pH paper) ([1]; initial value, before heating): 7
- stability of the parent molecule (conclusion from diketone formation) [2]: not stable
- breakdown product diketone (CF3)2CFCOC2F4COCF(CF3)2 ([2]; 150° C., at 7 days): 472 ppm
- breakdown product diketone (CF3)2CFCOC2F4COCF(CF3)2 ([2]; 150° C., at 28 days): 195 ppm
- appearance of the metal parts of the chiller ([2]; 150° C.): considerable corrosion
- appearance of the metal parts of the chiller ([2]; 150° C., listed as II): noticeable corrosion

SMILES: CCOC(F)(C(F)(F)C(F)(F)F)C(F)(OC(F)(F)C(F)(OC(F)(F)C(F)(F)C(F)(F)F)C(F)(F)F)C(F)(F)F (centres unmarked) [Comparative Example 2, 3-ethoxy-1,1,1,2,2,3,4,5,5,5-decafluoro-4-(1,1,2,3,3,3-hexafluoro-2-heptafluoropropyloxypropoxy)pentane]
- ppm Ketone (breakdown product C3F7OCF(CF3)CF2OCF(CF3)C(O)CF2CF3, GC-FID) ([1]; 150° C., Day 1): 140 ppm
- ppm Ketone (breakdown product C3F7OCF(CF3)CF2OCF(CF3)C(O)CF2CF3, GC-FID) ([1]; 150° C., Day 2): 300 ppm
- ppm Ketone (breakdown product C3F7OCF(CF3)CF2OCF(CF3)C(O)CF2CF3, GC-FID) ([1]; 150° C., Day 3): 503 ppm
- ppm Ketone (breakdown product C3F7OCF(CF3)CF2OCF(CF3)C(O)CF2CF3, GC-FID) ([1]; 150° C., Day 6): 1000 ppm
- ppm Ketone (breakdown product C3F7OCF(CF3)CF2OCF(CF3)C(O)CF2CF3, GC-FID) ([1]; 150° C., Day 8): 1200 ppm
- stability of the HFE to temperature (conclusion from ketone concentration) [1]: not exceptionally stable

SMILES: COC(F)(C(F)(F)C(F)(F)F)C(F)(OC(F)(F)C(F)(OC(F)(F)C(F)(F)C(F)(F)F)C(F)(F)F)C(F)(F)F (centres unmarked) [Comparative Example 3, 3-methoxy-1,1,1,2,2,3,4,5,5,5-decafluoro-4-(1,1,2,3,3,3-hexafluoro-2-heptafluoropropyloxypropoxy)pentane]
- ppm Ketone (breakdown product C3F7OCF(CF3)CF2OCF(CF3)C(O)CF2CF3, GC-FID) ([1]; 150° C., Day 1): 50 ppm
- ppm Ketone (breakdown product C3F7OCF(CF3)CF2OCF(CF3)C(O)CF2CF3, GC-FID) ([1]; 150° C., Day 2): 50 ppm
- ppm Ketone (breakdown product C3F7OCF(CF3)CF2OCF(CF3)C(O)CF2CF3, GC-FID) ([1]; 150° C., Day 5): 50 ppm
- ppm Ketone (breakdown product C3F7OCF(CF3)CF2OCF(CF3)C(O)CF2CF3, GC-FID) ([1]; 150° C., Day 7): 50 ppm
- stability of the HFE to temperature (conclusion from ketone concentration) [1]: not exceptionally stable

SMILES: CCOC(F)(F)C(F)(OC(F)(F)C(F)(OC(F)(F)C(F)(F)C(F)(F)C(F)(F)F)C(F)(F)F)C(F)(F)F (centres unmarked) [Comparative Example 4, 1-(1-{[1-(ethoxydifluoromethyl)-1,2,2,2-tetrafluoroethoxy]-difluoromethyl}-1,2,2,2-tetrafluoroethoxy)-1,1,2,2,3,3,4,4,4-nonafluorobutane]
- % Breakdown products (sum of vinyl ether and hydride, GC-FID) ([1]; 150° C., Day 0): 0%
- % Breakdown products (sum of vinyl ether and hydride, GC-FID) ([1]; 150° C., Day 3): 0.18%
- % Breakdown products (sum of vinyl ether and hydride, GC-FID) ([1]; 150° C., Day 5): 0.32%
- % Breakdown products (sum of vinyl ether and hydride, GC-FID) ([1]; 150° C., Day 7): 0.49%

SMILES: CCOC(F)(F)C(F)(OC(F)(F)C(F)(OC(F)(F)C(F)(OC(F)(F)C(F)(F)C(F)(F)F)C(F)(F)F)C(F)(F)F)C(F)(F)F (centres unmarked) [Comparative Example 5, 1-{1-[(1-{[1-(ethoxydifluoromethyl)-1,2,2,2-tetrafluoroethoxy]difluoro-methyl}-1,2,2,2-tetrafluoroethoxy)difluoromethyl]-1,2,2,2-tetrafluoroethoxy}-1,1,2,2,3,3,3-heptafluoro-propane]
- % Breakdown products (sum of vinyl ether and hydride, GC-FID) ([1]; 150° C., Day 0): 0%
- % Breakdown products (sum of vinyl ether and hydride, GC-FID) ([1]; 150° C., Day 2.75): 0.18%
- % Breakdown products (sum of vinyl ether and hydride, GC-FID) ([1]; 150° C., Day 4.75): 0.38%
- % Breakdown products (sum of vinyl ether and hydride, GC-FID) ([1]; 150° C., Day 6.75): 0.45%
- % Breakdown products (sum of vinyl ether and hydride, GC-FID) ([1]; 150° C., Day 9.75): 0.55%
- % Breakdown products (sum of vinyl ether and hydride, GC-FID) ([1]; 150° C., Day 18.75): 1.59%

SMILES: FC(C(F)(F)F)C(F)(F)OCC(F)(F)C(F)(F)C(F)(F)C(F)(F)C(F)(F)C(F)F (centres unmarked) [Example 1, 7-(1,1,2,3,3,3-hexafluoropropoxy)-1,1,2,2,3,3,4,4,5,5,6,6-dodecafluoroheptane]
- changes in product purity / breakdown products of the parent molecule (GC/MS, GC-FID) ([1]; PYREX glass flask, reflux condenser, under nitrogen, 150° C. for 36 days): No changes in product purity were observed
- breakdown products ([1]; after 36 days at 150° C., heated to 180° C. for an additional 14 days): No breakdown products were observed
- HF in head space of the flask (PortaSens HF gas detector probe) ([1]; entire 50 day heating period (150° C. 36 days, 180° C. 14 days)): detected no HF
- HF level in head space of the chiller ([2]; 150° C., by day 13): 0 ppm
- increase in HF levels in head space of the chiller (PortaSens HF gas detector probe) ([2]; 150° C., entire 28 day heating period): detected no increase in the HF levels
- HF level in head space of the chiller ([2]; 150° C., observed initially): 1.4 ppm
- HF in the liquid phase by titration ([2]; 150° C., over the chiller test (about 28-30 days)): ≤ 0.52 ppm
- appearance of the metal parts of the chiller ([2]; 150° C.): essentially unchanged
- changes in the composition of the circulating fluid (NMR, GC/MS) [2]: no significant deterioration
- changes in the composition of the circulating fluid (NMR, GC/MS) ([2]; listed as HC6F12CH2OCF2CFHCF3): No changes in the composition of the fluid were observed

SMILES: FC(OC(F)(F)F)C(F)(F)OCC(F)(F)C(F)(F)C(F)(F)C(F)(F)C(F)(F)C(F)F (centres unmarked) [Example 2, 1,1,2,2,3,3,4,4,5,5,6,6-dodecafluoro-7-(1,1,2-trifluoro-2-trifluoromethoxyethoxy)heptane]
- changes in product purity (gas chromatography, GC/MS) ([1]; flask, reflux condenser, under nitrogen, 175° C. for 15 days): No changes in product purity were observed
